Several values for one entry are separate records, joined by “and”; a condition that tells them apart may be missing. Equal entries are not always repeated.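 Assay format: 96-well plates, 48-hour exposure. GI50 marks 50% less growth. The concentration for full growth arrest is given as TGI.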
Assays:
Assay in all cases: NCI tumour cell line growth inhibition, 48 h
UO-31 renal = system: UO-31 renal
OVCAR-3 ovarian = system: OVCAR-3 ovarian
HOP-62 NSCLC = system: HOP-62 NSCLC
OVCAR-8 ovarian = system: OVCAR-8 ovarian
SK-OV-3 ovarian = system: SK-OV-3 ovarian
HCT-116 colon = system: HCT-116 colon
COLO 205 colon = system: COLO 205 colon
NCI-H226 lung = system: NCI-H226 lung
HS 578T breast = system: HS 578T breast

Row | Structure (SMILES) | TGI (UO-31 renal) | TGI (OVCAR-3 ovarian) | TGI (HOP-62 NSCLC) [µM] | TGI (OVCAR-8 ovarian) | TGI (SK-OV-3 ovarian) [µM] | TGI (HCT-116 colon) [µM] | TGI (COLO 205 colon) [µM] | TGI (NCI-H226 lung) [µM] | GI50 (UO-31 renal) [µM] | GI50 (HS 578T breast) [µM] | TGI (HS 578T breast) [µM] | GI50 (OVCAR-3 ovarian) [µM] | GI50 (HOP-62 NSCLC) [µM] | GI50 (OVCAR-8 ovarian) [µM] | GI50 (SK-OV-3 ovarian) [µM] | GI50 (HCT-116 colon) [µM] | GI50 (COLO 205 colon) [µM] | GI50 (NCI-H226 lung) [µM]
1 | COC(=O)/C(C#N)=C1\CCC(O)N1 (stereo unspecified) | > 100 µM | > 100 µM | > 100 | > 100 µM | > 100 | > 100 | > 100 | > 100 |  |  |  |  |  |  |  |  |  | 
2 | CN(C)C(=S)/N=c1\ss/c(=N\C(=S)N(C)C)n1-c1ccc(Cl)c(Cl)c1 | > 100 µM | > 100 µM | > 100 | > 100 µM | > 100 | > 100 | > 100 | > 100 |  |  |  |  |  |  |  |  |  | 
3 | COC(=O)/C(C)=C/[N+](=O)[O-] | 33.3 µM | 29.6 µM | 57.9 | 63.3 µM | 33.4 | 20.8 | 16.6 |  |  |  |  |  |  |  |  |  |  | 
4 | CC1=NN(C(=O)CC(=O)N(C(=O)c2ccccc2Cl)c2ccc(C)cc2)C(=O)C1N=Nc1ccc([N+](=O)[O-])cc1 (stereo unspecified) | > 93.6 µM | > 100 µM | > 100 | 78.1 µM | 69.6 | 38.6 | > 58 | > 100 |  |  |  |  |  |  |  |  |  | 
5 | O=C(COc1ccc(/C=C2\CSc3ccccc3C2=O)cc1)Nc1nccs1 | 6.73 µM | 4.25 µM | 30.8 | 32.8 µM | 42.2 | 14.7 | 27.1 | 32.5 | 2.24 | 4.29 | 37.2 | 2.17 | 16.3 | 7.76 | 22.2 | 4.32 | 14.1 | 15.6
6 | O=S1OC2(c3ccccc3-c3ccccc32)c2ccccc21 (stereo unspecified) | > 100 µM | > 100 µM | > 100 | > 100 µM | > 100 | > 100 | > 100 | > 100 |  |  |  |  |  |  |  |  |  | 
7 | CCC(C)(C)c1ccc(OCCCCCCN2CCNCC2)cc1 | 4.8 µM | 7.86 µM | 6.09 | 5.3 µM | 25.7 | 3.12 | 3.51 | 18 | 1.93 | 1.97 | 5.17 | 2.73 | 2.32 | 2.45 | 11.3 | 1.7 | 1.77 | 3.87
8 | Nc1nc(CCl)nc(Nc2ccccc2)n1 | 67.3 µM | 32.8 µM | 38.8 | > 100 µM |  | 43.5 | 43.4 | 43.3 |  |  |  |  |  |  |  |  |  | 
9 | Cc1cc(NS(=O)(=O)c2ccc(Nc3c4ccccc4nc4c(C(=O)NCCN(C)C)cccc34)cc2)no1 |  |  | 6.57 | > 100 µM |  | > 100 | > 100 | 2.92 |  |  |  |  |  |  |  |  |  | 
10 | CC(C)CCCC(C)[C@H]1CCC2[C@H]3C(CC[C@@]21C)[C@@]1(C)CCC=C[C@]12C[C@@H]2[C@@H]3O (stereo partly specified) | > 100 µM | > 100 µM | > 100 | > 100 µM | > 100 | > 100 | > 100 | > 100 |  |  |  |  |  |  |  |  |  | 
11 | COc1ccc(-c2oc3cc(O)c(OC)c(O)c3c(=O)c2OC)cc1O |  | 0.194 µM | > 100 | > 100 µM | 16.4 | 6.56 | 28.8 | > 100 |  | 0.037 | 0.715 | 0.0432 | 0.271 | 0.375 | 0.207 | 0.0762 | 5.85 | 2.5
12 | N.N.N.N.[Cl-].[Co+3].[N-]=[N+]=[N-].[N-]=[N+]=[N-] | > 100 µM | > 100 µM | > 100 | > 100 µM | > 100 | > 100 | > 100 |  | 41.3 |  |  | > 100 | > 100 | > 100 | > 100 | > 100 | > 100 | 
13 | CCCCOC(=O)NC(=O)c1cn(CCCOC(=O)NCCCCCCNC(=O)OCCCn2cc(C(=O)NC(=O)OCCCC)c(=O)[nH]c2=O)c(=O)[nH]c1=O | > 100 µM | > 100 µM | > 100 | > 100 µM | > 100 | > 100 | > 100 |  |  |  |  |  |  |  |  |  |  | 
14 | CN(CCCNC(=O)Cc1ccc2ccc3cccc4ccc1c2c34)CCCNc1cc(-c2ccc3ccccc3c2)nc2ccccc12 | 3.15 µM | 3.29 µM | 3.26 |  | 3.06 | 1.28 | 2.83 | 3.83 | 1.4 | 1.66 | 3.59 | 1.76 | 1.71 |  | 1.64 | 0.333 | 1.42 | 1.83
15 | CC1(C)O/C(=C\c2ccccc2)C(=O)/C(=C/c2ccccc2)O1 | > 100 µM | > 100 µM | > 100 | > 100 µM | > 100 | > 100 | > 100 | 96.3 |  |  |  |  |  |  |  |  |  | 
16 | CCOC(=N)CC(=O)Nc1cccc(C)c1C | > 100 µM | > 100 µM | > 100 | > 100 µM | > 100 | > 100 | > 100 | > 100 |  |  |  |  |  |  |  |  |  | 
17 | C=CCNC(=O)N(CCC)CCCCC(NC(C)=O)C(=O)NCc1ccccc1 (stereo unspecified) | > 100 µM | > 100 µM | > 100 | > 100 µM | > 100 |  | > 100 | > 100 |  |  |  |  |  |  |  |  |  | 

Row | Structure (SMILES) | TGI (UO-31 renal) | TGI (OVCAR-3 ovarian) | TGI (HOP-62 NSCLC) [µM] | TGI (OVCAR-8 ovarian) | TGI (SK-OV-3 ovarian) [µM] | TGI (HCT-116 colon) [µM] | TGI (COLO 205 colon) [µM] | TGI (NCI-H226 lung) [µM] | GI50 (UO-31 renal) [µM] | GI50 (HS 578T breast) [µM] | TGI (HS 578T breast) [µM] | GI50 (OVCAR-3 ovarian) [µM] | GI50 (HOP-62 NSCLC) [µM] | GI50 (OVCAR-8 ovarian) [µM] | GI50 (SK-OV-3 ovarian) [µM] | GI50 (HCT-116 colon) [µM] | GI50 (COLO 205 colon) [µM] | GI50 (NCI-H226 lung) [µM]
18 | O=C(Nc1cc(Cl)ccc1Cl)C(=O)C(c1cnc2ccccc2n1)[N+](=O)[O-] (stereo unspecified) | > 100 µM | > 100 µM | > 100 | > 100 µM | > 100 | > 100 | > 100 | > 100 |  |  |  |  |  |  |  |  |  | 
19 | Cc1ccc(C2(O)CC(c3ccc([N+](=O)[O-])o3)=NN2C(=O)COc2ccc(Cl)cc2)cc1 (stereo unspecified) | 16.2 µM | 51.7 µM | 18.2 | 20.3 µM | > 100 | 22.2 | 15.3 | 39.7 |  |  |  |  |  |  |  |  |  | 
20 | Nc1ccn(C2(CO)C=C(CO)C(O)C2O)c(=O)n1 (stereo unspecified) | > 25.8 µM | > 25.8 µM | > 25.8 | > 25.8 µM | > 25.8 | > 25.8 | > 25.8 | > 25.8 |  |  |  |  |  |  |  |  |  | 
21 | COC(=O)/C(C=O)=C/Sc1ccccc1 | 30.7 µM | 65.8 µM | > 100 | 31.8 µM | 88.5 | > 100 | 42.9 | 44.6 |  |  |  |  |  |  |  |  |  | 
22 | C[n+]1cc(C(O)c2ccc3c(c2)OCO3)c2ccccc2c1 (stereo unspecified) | 92.5 µM | > 100 µM | > 100 | > 100 µM | > 100 | > 100 | > 100 | > 100 |  |  |  |  |  |  |  |  |  | 
23 | CN[C@@H](C)[C@H](NC)c1ccccc1 | > 100 µM | > 100 µM |  | > 100 µM | > 100 | > 100 | > 100 | > 100 |  |  |  |  |  |  |  |  |  | 
24 | COc1cccc(-n2c3nc(=O)n(C)c(=O)c-3nc3ccccc32)c1 | > 100 µM | 8.8 µM | > 100 | 49.6 µM | > 100 | > 100 | 13.1 | 55.6 |  |  |  |  |  |  |  |  |  | 
25 | CC(=O)c1sc(-c2nc(C)c(C(=O)/C=C\c3ccc(/C=C\C(=O)c4sc(-c5nc(C)c(C(C)=O)s5)nc4C)cc3)s2)nc1C | > 100 µM | > 100 µM | > 100 | > 100 µM | > 100 | > 100 | > 100 | > 100 |  |  |  |  |  |  |  |  |  | 
26 | CC12CCCCC1(C)C2Sc1ccccc1 (stereo unspecified) | > 100 µM | > 100 µM | > 100 | > 100 µM | > 100 | > 100 | > 100 | > 100 |  |  |  |  |  |  |  |  |  | 
27 | COC(=O)CCC(=O)CC1CC(=O)C2CCCN12 (stereo unspecified) | > 100 µM | > 100 µM | > 100 | > 100 µM | > 100 | > 100 | > 100 | > 100 |  |  |  |  |  |  |  |  |  | 
28 | CC(C)(C=O)CC(C#N)/C(=N\NC(N)=O)C(=O)Nc1ccccc1C(N)=O (stereo unspecified) | > 100 µM | > 100 µM | > 100 | > 100 µM | > 100 | > 100 |  | > 100 |  |  |  |  |  |  |  |  |  | 
29 | COc1ccc(C2c3cc(OC)c(OC)cc3C(Cc3ccc([N+](=O)[O-])cc3)C2c2ccc([N+](=O)[O-])cc2)cc1OC (stereo unspecified) | > 100 µM | > 100 µM | > 100 | > 100 µM |  | > 100 | > 100 | > 100 |  |  |  |  |  |  |  |  |  | 
30 | C=C1C[C@]23CCC4C(C)(C)C(=O)CC[C@]4(C)C2C[C@H]1C(O)C3=O (stereo partly specified) | > 75 µM | > 75 µM | > 75 | > 75 µM | > 75 |  | > 75 | > 75 |  |  |  |  |  |  |  |  |  | 
31 | CCOC(=O)c1c[nH]c2oc(/C=N/N3CC(CN4CCOCC4)OC3=O)cc2c1=O (stereo unspecified) | > 100 µM | > 100 µM | > 100 | > 100 µM | > 100 | > 100 | > 100 | > 100 |  |  | > 100 |  |  |  |  |  |  | 
32 | C[C@@]12CCCc3coc(c31)C(=O)c1cc3c(cc12)C(=O)C=CC3=O | > 1 µM and 29.7 µM | > 1 µM and 41.8 µM | > 100 | > 1 µM and 29.1 µM | > 100 | > 1 | > 1 | > 1 | > 1 |  |  | > 1 | > 100 | > 1 | > 100 |  |  | 
33 | Cc1cc(C)c(C2[C@H]3C(=O)N(c4ccc(Cc5ccc(N6C(=O)[C@@H]7ON(c8ccccc8)C(c8c(C)cc(C)cc8C)[C@@H]7C6=O)cc5)cc4)C(=O)[C@H]3ON2c2ccccc2)c(C)c1 (stereo partly specified) | > 100 µM | > 100 µM | > 100 | > 100 µM | > 100 | > 100 | > 100 | > 100 |  |  |  |  |  |  |  |  |  | 

Reference: PubChem BioAssay (NCI)
